Paper PMC9865903, “Improving the Antimycobacterial Drug Clofazimine through Formation of Organic Salts by Combination with Fluoroquinolones” (International Journal of Molecular Sciences, 2023)
Values joined by “and” are separate entries in the source; they are usually repeats but may differ in a detail not shown here. Identical values can stand only once.

Experiments:
[1] = physchem; settings: organic solvent or mixture
From the text: DMSO has been previously established as an adequate solvent for studies focused on Clf, including susceptibility testing on Mycobacteria.

[2] = set-up: method as in PMID 7617530, PMID 35300192; settings: due to poor solubility in aqueous/polar media; cited from earlier work
[3] = Simultaneous thermal analysis (STA: thermogravimetry with DSC); format: physicochemical; settings: heating from room temperature to 500 °C at 5 °C/min, value in parentheses after melting point
From the text: Considering that thermal stability is an important issue for any API or derived formulation, both API-OSs were next tested by simultaneous thermal analysis (STA) which combines thermogravimetry with differential scanning calorimetry. Thermograms were obtained for the API-OSs and their parent fluoroquinolones (Figure 2), providing their respective melting points and decomposition temperatures. As shown in both Figure 2 and Table 1, the two new API-OSs have melting points lower than those of their respective parent APIs, as expected, but in all cases well above 100 °C, which is generally acknowledged as the threshold temperature separating common ILs from other types of GUMBOS. […] Therefore, the thermostability of this parent antimycobacterial drug is improved when it is forming an ionic pair with the selected fluoroquinolones.
The thermal stability of the compounds was evaluated using a Hitachi STA7200RV instrument (Scancsi, Vila Nova de Gaia, Portugal), following the manufacturer’s instructions. The compounds were subjected to heating from room temperature to 500 °C at a speed of 5 °C/min, obtaining the thermograms provided in Figure 2.

[4] = in vivo, po; cited from earlier work
[5] = Toxicity to infected host macrophages, resazurin reduction; format: cell-based, murine (C57BL/6 mice); settings: male, C57BL/6, mouse; BMM infected with M. avium 2447 SmT, 5 days at 37 °C and 7% CO2, resazurin; 4PL interpolation; parentheses = 95% confidence interval; read-out: LC50
Description: Considering that, after invading its mammalian host, M. avium replicates mainly inside macrophages, the toxicity of test compounds to infected murine bone marrow-derived macrophages (BMM) was also assessed. This was carried out by treating BMM infected with M. avium 2447 SmT with increasing concentrations of the test compounds for 5 days at 37 °C and 7% CO2. Macrophage viability was assessed through a resazurin reduction assay. As shown in Table 1 and Figure 4, though being more toxic to mammalian cells than their parent fluoroquinolones, the Clf-derived OSs seem less toxic to BMM than Clf itself. We are aware that the confidence intervals for LD50 values shown in Table 1 for Clf and its derived OSs have some degree of overlap which, alongside the large standard deviations depicted on the macrophage viability curves shown in Figure 4, are not statistically significant different.
Macrophages were derived from the bone marrow of male C57BL/6 mice bred at the i3S animal facility and infected with M. avium 2447 SmT as described previously. Immediately after infection, BMM were treated with different concentrations of each compound. Each condition was tested in triplicate. The intracellular growth of M. avium 2447 SmT was evaluated 5 days after infection, by colony-forming units (CFUs) assay, plating the bacteria in Middlebrook 7H10 agar (BD DifcoTM, Fisher Scientific, Porto Salvo, Portugal) supplemented with 10% Oleic Acid-Albumin-Dextrose-Catalase (OADC; Merck KGaA, Darmstadt, Germany) for at least 7 days at 37 °C. The viability of macrophages was determined by resazurin reduction as detailed above for mycobacteria.
The viability of both mycobacteria and host macrophages was determined by resazurin reduction as detailed above. IC50 (concentration that inhibits 50% of mycobacterial growth after 7 days of incubation) and LD50 (concentration that inhibits 50% of macrophage viability) values were interpolated by fitting the experimental data through a 4PL nonlinear sigmoidal curve using the GraphPad Prism software version 9 (GraphPad Software Inc., La Jolla, CA, USA). […]

[6] = cited from earlier work
[7] = Net charge at physiological pH; format: physicochemical; settings: at physiological pH 7.4
Description: Table 1 Physico-chemical properties and in vitro effects of the API-OSs and their parent drugs. The compounds were tested against both axenic cultures of M. avium 2447 SmT (IC50) and mammalian host cells (bone marrow-derived macrophages, BMM, LC50) infected with M. avium 2447 SmT. ^1. | column: Net Charge ^2

[8] = test system: M. avium 2447 SmT; assay: Antimycobacterial activity in axenic culture, broth microdilution with resazurin; format: cell-based; settings: Mycobacterium avium, 168 h, 7 days at 37 °C, 4PL interpolation, parentheses = 95% confidence interval
Description: The susceptibility of M. avium to the API-OSs and their parent drugs was first assessed in axenic culture to determine the IC50 of each test compound. To this end, the bacteria were incubated with increasing concentrations of the compounds for 7 days at 37 °C and their viability was assessed by the resazurin assay.
Mycobacterium avium 2447 smooth transparent (SmT) strain (kindly provided by Dr. F. Portaels, Institute of Tropical Medicine, Antwerp, Belgium) was grown to the mid-log phase in Middlebrook 7H9 medium (BD Difco^TM, Fisher Scientific, Porto Salvo, Portugal) containing 0.2% of glycerol (VWR International, Carnaxide, Portugal) and 10% of Albumin-Dextrose-Catalase (ADC, Merck KGaA, Darmstadt, Germany) supplement at 37 °C, as described previously.
The antimicrobial activity of the different compounds was assessed by broth microdilution, following the Clinical and Laboratory Standards Institute (CLSI) guidelines and as described previously, using stock solutions of the compounds in DMSO, due to the negligible solubility of Clf in water. Briefly, M. avium was grown in Middlebrook 7H9 medium to the exponential phase and 1 to 5 × 10^5 CFU/mL of bacteria was seeded in 96-well plates with increasing concentrations of the compounds. […] After 6 days of incubation, bacterial viability was assessed by resazurin reduction. Then, 10% (v/v) of resazurin (Sigma-Aldrich, St. Louis, MO, USA) at 2.5 mM in phosphate-buffered saline (PBS, Sigma-Aldrich, St. Louis, MO, USA) was added to each well, and after 24 h of incubation at 37 °C, the fluorescence of resorufin, resulting from the conversion of resazurin by metabolically active cells, was measured at λex = 530 nm and λem = 590 nm in a Synergy^TM Mx microplate reader from BioTek (Agilent Technologies Inc., Santa Clara, CA, USA) using the Gen5 software also from BioTek. The results are expressed as the percentage of the fluorescence obtained in experimental wells relative to the fluorescence obtained in nontreated wells.
The viability of both mycobacteria and host macrophages was determined by resazurin reduction as detailed above. […]

Row | Compound | solubility [1] | Biopharmaceutics Classification System class [2] | Decomposition Temperature [3] | absorption rates in humans [4] | CC50 at 5 days [5] | solubility in water [6] | Net Charge [7] | IC50 [8]
1 | CC(C)/N=c1\cc2n(-c3ccc(Cl)cc3)c3ccccc3nc-2cc1Nc1ccc(Cl)cc1 [Clf, clofazimine] | 4800 µg/mL and 10200 µM | class II | 221.9 (258.0) °C | 45 to 62% | 4.1 µM | virtually insoluble | +1 | 0.33 µM
2 | CCn1cc(C(=O)O)c(=O)c2cc(F)c(N3CCNCC3)cc21 [Nf, norfloxacin] | 11000 µg/mL and 34400 µM | – | 206.1 (222.0) °C | – | > 100 µM | – | −1 | 7.93 µM
3 | CC1COc2c(N3CCN(C)CC3)c(F)cc3c(=O)c(C(=O)O)cn1c23 (centres unmarked) [Of, ofloxacin] | – | – | 274.8 (318.8) °C | – | > 100 µM | – | −1 | 3.85 µM
